Results reported in PMC7023430, “4-Aminobenzoic Acid Derivatives: Converting Folate Precursor to Antimicrobial and Cytotoxic Agents” (Biomolecules, 2019).
Values after ≈ are worked out from the molar mass of the structure shown. Like-named read-outs stand apart in the source and are kept apart here.

Assays:
[1] = test system: Staphylococcus aureus ATCC 29213, CCM 4223; test: Antibacterial microdilution broth method, S. aureus; type: cell-based
[2] = test system: methicillin-resistant Staphylococcus aureus ATCC 43300, CCM 4750 (MRSA); test: Antibacterial microdilution broth method, MRSA; type: cell-based; conditions: Staphylococcus aureus
[3] = test system: Enterococcus faecalis ATCC 29212, CCM 4224; test: Antibacterial microdilution broth method, E. faecalis; type: cell-based; conditions: Enterococcus faecalis
[4] = test system: Escherichia coli ATCC 25922, CCM 3954; test: Antibacterial microdilution broth method, E. coli; type: cell-based; conditions: Escherichia coli
[5] = test system: Mycobacterium tuberculosis H37Rv (331/88); test: Antimycobacterial micromethod in Šula's medium, M. tuberculosis; type: cell-based
[6] = test system: Mycobacterium avium 330/88; test: Antimycobacterial micromethod in Šula's medium, M. avium; type: cell-based
[7] = test system: Mycobacterium kansasii 235/80; test: Antimycobacterial micromethod in Šula's medium, M. kansasii 235/80; type: cell-based
[8] = test system: M. kansasii 6509/96 (clinical isolate); test: Antimycobacterial micromethod in Šula's medium, M. kansasii 6509/96; type: cell-based; conditions: Mycobacterium kansasii
[9] = test system: Candida albicans ATCC 44859; test: Antifungal microdilution broth method, C. albicans; type: cell-based
How it was run: (§1)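 Duplicate microdilution tests in RPMI-1640 (2% glucose, L-glutamine, MOPS, pH 7.0) with twofold compound dilutions from DMSO gave visually determined MICs. Results counted only when duplicates agreed to within one step; protocol adapted from EUCAST.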

Candida tropicalis 156 = test: Antifungal microdilution broth method, C. tropicalis; type: cell-based
How it was run: as §1

Candida krusei E28 = test: Antifungal microdilution broth method, C. krusei; type: cell-based; conditions: Pichia kudriavzevii
How it was run: as §1

Candida glabrata 20/I = test: Antifungal microdilution broth method, C. glabrata; type: cell-based; conditions: Nakaseomyces glabratus
How it was run: as §1

Trichosporon asahii 1188 = test: Antifungal microdilution broth method, T. asahii; type: cell-based
How it was run: as §1

[10] = test system: Aspergillus fumigatus 231; test: Antifungal microdilution broth method, A. fumigatus; type: cell-based
How it was run: as §1

[11] = test system: Lichtheimia corymbifera 272; test: Antifungal microdilution broth method, L. corymbifera; type: cell-based
How it was run: as §1

[12] = test system: Trichophyton interdigitale 445; test: Antifungal microdilution broth method, T. interdigitale; type: cell-based
How it was run: as §1

[13] = test system: ESBL-positive Klebsiella pneumoniae J 14368/08
[14] = test system: Klebsiella pneumoniae D 11750/08; test: Antibacterial microdilution broth method, K. pneumoniae; conditions: K. pneumoniae D 11750/08; for MIC KP 24 h: 24 h incubation; for MIC KP 48 h: 48 h incubation
[15] = 24 h incubation, read-out: MIC SA 24 h
[16] = 48 h incubation, read-out: MIC SA 48 h
[17] = 24 h incubation, read-out: MIC MRSA 24 h
[18] = 48 h incubation, read-out: MIC MRSA 48 h
[19] = 24 h incubation, read-out: MIC EF 24 h
[20] = 48 h incubation, read-out: MIC EF 48 h
[21] = 24 h incubation, read-out: MIC EC 24 h
[22] = 48 h incubation, read-out: MIC EC 48 h
[23] = 336 h, 14 days incubation at 37 °C, read-out: MIC Mtb. 331/88 14 d
[24] = 504 h, 21 days incubation at 37 °C, read-out: MIC Mtb. 331/88 21 d
[25] = 330/88, 336 h, 14 days incubation at 37 °C, read-out: MIC M. avium 330/88 14 d
[26] = 330/88, 504 h, 21 days incubation at 37 °C, read-out: MIC M. avium 330/88 21 d
[27] = 235/80, 168 h, 7 days incubation at 37 °C, read-out: MIC M. kansasii 235/80 7 d
[28] = 235/80, 336 h, 14 days incubation at 37 °C, read-out: MIC M. kansasii 235/80 14 d
[29] = 235/80, 504 h, 21 days incubation at 37 °C, read-out: MIC M. kansasii 235/80 21 d
[30] = 168 h, 7 days incubation at 37 °C, read-out: MIC M. kansasii 6509/96 7 d
[31] = 336 h, 14 days incubation at 37 °C, read-out: MIC M. kansasii 6509/96 14 d
[32] = 504 h, 21 days incubation at 37 °C, read-out: MIC M. kansasii 6509/96 21 d
[33] = ATCC44859, 24 h, read-out: MIC CA 24 h
[34] = ATCC44859, 48 h, read-out: MIC CA 48 h

Row | SMILES | MIC [1, 15] [µM] | MIC [1, 16] [µM] | MIC [2, 17] [µM] | MIC [2, 18] [µM] | MIC [3, 19] [µM] | MIC [3, 20] [µM] | MIC [4, 21] [µM] | MIC [4, 22] [µM] | MIC [5, 23] [µM] | MIC [5, 24] [µM] | MIC [6, 25] [µM] | MIC [6, 26] [µM] | MIC [7, 27] [µM] | MIC [7, 28] [µM] | MIC [7, 29] [µM] | MIC [8, 30] [µM] | MIC [8, 31] [µM] | MIC [8, 32] [µM] | MIC [9, 33] [µM] | MIC [9, 34] [µM] | other results
1 | O=C(O)c1ccc(N=Cc2cc(I)ccc2O)cc1 [1e, 4-[(2-Hydroxy-5-iodobenzylidene)amino]benzoic acid] | > 250 | > 250 | 250 (≈ 91.8 µg/mL) | 250 (≈ 91.8 µg/mL) | > 250 | > 250 | > 250 | > 250 | 250 (≈ 91.8 µg/mL) | 250 (≈ 91.8 µg/mL) | 500 (≈ 184 µg/mL) | 500 (≈ 184 µg/mL) | 250 (≈ 91.8 µg/mL) | 250 (≈ 91.8 µg/mL) | 250 (≈ 91.8 µg/mL) | 250 (≈ 91.8 µg/mL) | 250 (≈ 91.8 µg/mL) | 500 (≈ 184 µg/mL) | 62.5 (≈ 22.9 µg/mL) | 62.5 (≈ 22.9 µg/mL) | MIC (Candida tropicalis 156; 24 h, read-out: MIC CT 24 h): 125 µM (≈ 45.9 µg/mL); MIC (Candida tropicalis 156; 48 h, read-out: MIC CT 48 h): 125 µM (≈ 45.9 µg/mL); MIC (Candida krusei E28; 24 h, read-out: MIC CK 24 h): 62.5 µM (≈ 22.9 µg/mL); MIC (Candida krusei E28; 48 h, read-out: MIC CK 48 h): 62.5 µM (≈ 22.9 µg/mL); MIC (Candida glabrata 20/I; 24 h, read-out: MIC CG 24 h): 31.2 µM (≈ 11.5 µg/mL); MIC (Candida glabrata 20/I; 48 h, read-out: MIC CG 48 h): 31.2 µM (≈ 11.5 µg/mL); MIC (Trichosporon asahii 1188; 24 h, read-out: MIC TA 24 h): 62.5 µM (≈ 22.9 µg/mL); MIC (Trichosporon asahii 1188; 48 h, read-out: MIC TA 48 h): 62.5 µM (≈ 22.9 µg/mL); MIC ([10]; 24 h, read-out: MIC AF 24 h): 125 µM (≈ 45.9 µg/mL); MIC ([10]; 48 h, read-out: MIC AF 48 h): 125 µM (≈ 45.9 µg/mL); MIC ([11]; 24 h, read-out: MIC LC 24 h): > 125 µM; MIC ([11]; 48 h, read-out: MIC LC 48 h): > 125 µM; MIC ([12]; 72 h, read-out: MIC TI 72 h): 31.2 µM (≈ 11.5 µg/mL); MIC ([12]; 120 h, read-out: MIC TI 120 h): 31.2 µM (≈ 11.5 µg/mL); MIC KP-E 24 h [13]: >250 µM; MIC KP-E 48 h [13]: >250 µM; MIC KP 24 h [14]: >250 µM; MIC KP 48 h [14]: >250 µM
2 | O=C(O)c1ccc(N=Cc2cc([N+](=O)[O-])ccc2O)cc1 [1f, 4-[(2-Hydroxy-5-nitrobenzylidene)amino]benzoic acid] | 500 (≈ 143 µg/mL) | 500 (≈ 143 µg/mL) | 500 (≈ 143 µg/mL) | 500 (≈ 143 µg/mL) | 500 (≈ 143 µg/mL) | 500 (≈ 143 µg/mL) | > 500 | > 500 | 250 (≈ 71.6 µg/mL) | 500 (≈ 143 µg/mL) | 1000 (≈ 286 µg/mL) | > 1000 | 500 (≈ 143 µg/mL) | 500 (≈ 143 µg/mL) | 500 (≈ 143 µg/mL) | 500 (≈ 143 µg/mL) | 500 (≈ 143 µg/mL) | 500 (≈ 143 µg/mL) | 500 (≈ 143 µg/mL) | 500 (≈ 143 µg/mL) | MIC (Candida tropicalis 156; 24 h, read-out: MIC CT 24 h): > 500 µM; MIC (Candida tropicalis 156; 48 h, read-out: MIC CT 48 h): > 500 µM; MIC (Candida krusei E28; 24 h, read-out: MIC CK 24 h): > 500 µM; MIC (Candida krusei E28; 48 h, read-out: MIC CK 48 h): > 500 µM; MIC (Candida glabrata 20/I; 24 h, read-out: MIC CG 24 h): > 500 µM; MIC (Candida glabrata 20/I; 48 h, read-out: MIC CG 48 h): > 500 µM; MIC (Trichosporon asahii 1188; 24 h, read-out: MIC TA 24 h): 500 µM (≈ 143 µg/mL); MIC (Trichosporon asahii 1188; 48 h, read-out: MIC TA 48 h): 500 µM (≈ 143 µg/mL); MIC ([10]; 24 h, read-out: MIC AF 24 h): > 500 µM; MIC ([10]; 48 h, read-out: MIC AF 48 h): > 500 µM; MIC ([11]; 24 h, read-out: MIC LC 24 h): 500 µM (≈ 143 µg/mL); MIC ([11]; 48 h, read-out: MIC LC 48 h): 500 µM (≈ 143 µg/mL); MIC ([12]; 72 h, read-out: MIC TI 72 h): 500 µM (≈ 143 µg/mL); MIC ([12]; 120 h, read-out: MIC TI 120 h): 500 µM (≈ 143 µg/mL); MIC KP-E 24 h [13]: >500 µM; MIC KP-E 48 h [13]: >500 µM; MIC KP 24 h [14]: >500 µM; MIC KP 48 h [14]: >500 µM
3 | Cc1ccc(O)c(C=Nc2ccc(C(=O)O)cc2)c1 [1g, 4-[(2-Hydroxy-5-methylbenzylidene)amino]benzoic acid] | > 500 | > 500 | > 500 | > 500 | > 500 | > 500 | > 500 | > 500 | 500 (≈ 128 µg/mL) | 500 (≈ 128 µg/mL) | > 1000 | > 1000 | 500 (≈ 128 µg/mL) | 500 (≈ 128 µg/mL) | 500 (≈ 128 µg/mL) | 500 (≈ 128 µg/mL) | 500 (≈ 128 µg/mL) | 1000 (≈ 255 µg/mL) | > 125 | > 125 | MIC (Candida tropicalis 156; 24 h, read-out: MIC CT 24 h): > 125 µM; MIC (Candida tropicalis 156; 48 h, read-out: MIC CT 48 h): > 125 µM; MIC (Candida krusei E28; 24 h, read-out: MIC CK 24 h): > 125 µM; MIC (Candida krusei E28; 48 h, read-out: MIC CK 48 h): > 125 µM; MIC (Candida glabrata 20/I; 24 h, read-out: MIC CG 24 h): > 125 µM; MIC (Candida glabrata 20/I; 48 h, read-out: MIC CG 48 h): > 125 µM; MIC (Trichosporon asahii 1188; 24 h, read-out: MIC TA 24 h): > 125 µM; MIC (Trichosporon asahii 1188; 48 h, read-out: MIC TA 48 h): > 125 µM; MIC ([10]; 24 h, read-out: MIC AF 24 h): > 125 µM; MIC ([10]; 48 h, read-out: MIC AF 48 h): > 125 µM; MIC ([11]; 24 h, read-out: MIC LC 24 h): > 125 µM; MIC ([11]; 48 h, read-out: MIC LC 48 h): > 125 µM; MIC ([12]; 72 h, read-out: MIC TI 72 h): > 125 µM; MIC ([12]; 120 h, read-out: MIC TI 120 h): > 125 µM; MIC KP-E 24 h [13]: >500 µM; MIC KP-E 48 h [13]: >500 µM; MIC KP 24 h [14]: >500 µM; MIC KP 48 h [14]: >500 µM
